Source: ChEMBL document CHEMBL1132949, “Conceptually new 20-epi-22-oxa sulfone analogues of the hormone 1alpha,25-dihydroxyvitamin D(3): synthesis and biological evaluation” (2000)

How the values were obtained:
PBMC = assay: In vitro inhibition of phytohemagglutininin-induced stimulation of human peripheral blood mononuclear cells proliferation; type: functional; conditions: read-out: ED50 (the source's name)
MCF7 = assay: In vitro activity on human breast adenocarcinoma cell line MCF-7 proliferation; type: functional; conditions: read-out: ED50 (the source's name)
[1] = In vitro vitamin D receptor (VDR)-mediated transcriptional potency in rat osteosarcoma ROS 17/2.8 cells; type: functional; conditions: read-out: ED50 (the source's name)
[2] = biological target: T1, Vitamin D3 receptor (Homo sapiens) (UniProt P11473); assay: Binding affinity to Vitamin D3 receptor relative to 1,25D3
T1 sequence (whole entry): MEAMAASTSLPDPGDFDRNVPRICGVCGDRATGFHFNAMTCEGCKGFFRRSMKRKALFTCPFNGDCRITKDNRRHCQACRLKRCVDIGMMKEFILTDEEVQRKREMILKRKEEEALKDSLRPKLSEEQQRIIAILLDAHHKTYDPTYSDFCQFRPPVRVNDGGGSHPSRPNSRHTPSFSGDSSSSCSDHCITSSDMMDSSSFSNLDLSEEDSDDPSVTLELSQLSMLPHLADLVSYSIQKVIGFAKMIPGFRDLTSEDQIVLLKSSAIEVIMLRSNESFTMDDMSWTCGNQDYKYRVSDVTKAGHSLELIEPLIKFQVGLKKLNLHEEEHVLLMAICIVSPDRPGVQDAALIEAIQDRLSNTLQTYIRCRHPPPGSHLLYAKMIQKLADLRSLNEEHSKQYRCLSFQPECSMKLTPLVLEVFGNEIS

Structure (SMILES)	EC50 (PBMC) [nM]	EC50 (MCF7) [nM]	EC50 [1] [nM]	Binding affinity [2] [%]
C=C1/C(=C\C=C2/CCC[C@]3(C)[C@@H]([C@@H](C)OCCCS(=O)(=O)C(C)(C)C)CC[C@@H]23)C[C@H](O)C[C@H]1O	8.4	9.6	1.6	26
C=C1/C(=C\C=C2/CCC[C@]3(C)[C@@H]([C@@H](C)OCCCS(=O)(=O)C(C)(C)C)CC[C@@H]23)C[C@@H](O)C[C@@H]1O	–	–	> 100	0.4
C=C1/C(=C\C=C2/CCC[C@]3(C)[C@@H]([C@@H](C)OCCCC(O)(CC)CC)CC[C@@H]23)C[C@@H](O)C[C@@H]1O [LEXACALCITOL]	–	0.27	–	–
